According to patent US7718641B2, “Pyrrolo [3,4-H] isoquinoline compounds and methods for modulating gated ion channels” (Aros Pharma ApS, priority 2005, dated 2010):
pIC50: −log10 of the molar value. Blank lines part the entries; values can stand above or below the compound they belong to.

Columns and labels:
formalin-induced pain = assay: Formalin test, model of acute tonic pain; type: in vivo, rat; conditions: Automated Nociception Analyser, n=6-8
Method: Male Sprague-Dawley rats are housed together in groups of three animals under standard conditions with unrestricted access to food and water. All experiments are conducted according to the ethical guidelines for investigations of experimental pain in conscious animals (Zimmerman, 1983)
Assessment of formalin-induced flinching behavior in normal, uninjured rats (body weight 150-180 g) was made with the use of an Automated Nociception Analyser (University of California, San Diego, USA). Briefly, this involved placing a small C-shaped metal band (10 mm wide×27 mm long) on the hindpaw of the rat to be tested. The rats (four rats were included in each testing session) were then placed in a cylindrical plexiglass observation chamber (diameter 30.5 cm and height 15 cm) for 20 min for adaptation purposes prior to being administered drug or vehicle according to the experimental paradigm being followed. After adaptation, individual rats were then gently restrained and formalin (5% in saline, 50 μl, s.c.) was injected into the plantar surface of the hindpaw using a 27G needle. Rats were then returned to their separate observation chambers, each of which were in turn situated upon an enclosed detection device consisting of two electromagnetic coils designed to produce an electromagnetic field in which movement of the metal band could be detected. The analogue signal was then digitised and a software algorithm (LabView) applied to enable discrimination of flinching behaviour from other paw movements. A sampling interval of 1 min was used and on the basis of the resulting response patterns 5 phases of nociceptive behaviour were identified and scored: first phase (P1; 0-5 min), interphase (Int; 6-15 min), second phase (P2; […]), phase 2A (P2A; 16-40 min) and phase 2B (P2B; 41-60 min).
Nociceptive behavior was also determined manually every 5 min by measuring the amount of time spent in each of four behavioral categories: 0, treatment of the injected hindpaw is indistinguishable from that of the contralateral paw; 1, the injected paw has little or no weight placed on it; 2, the injected paw is elevated and is not in contact with any surface; 3, the injected paw is licked, bitten, or shaken. A weighted nociceptive score, ranging from 0 to 3 was calculated by multiplying the time spent in each category by the category weight, summing these products, and dividing by the total time for each 5 min block of time. (Coderre et al., Pain 1993; 54: 43). On the basis of the resulting response patterns, […] of nociceptive behavior were identified and scored: first phase (P1; 0-5 min), interphase (Int; 6-15 min), second phase (P2; […]), phase 2A (P2A; 16-40 min) and phase 2B (P2B; 41-60 min). […]

hASIC1a [1] = biological target: T1, hASIC1a (Homo sapiens, UniProt P78348); assay: Calcium-imaging (FLIPR, Fluo-4) of acid (MES)-induced calcium response in ASIC1a expressing HEK293 cells; type: cell-based; design: expressed in transfected cells; host or cells: HEK293; conditions: for pIC50: calcium mobilization assay, MES-induced calcium response, HEK293, n=3-7; for inhibitory effect on acid-induced hASIC1a activity (dose-response curve): HEK293 transfected with hASIC1a, intracellular calcium, increasing concentrations
T1 sequence (P78348 1-528): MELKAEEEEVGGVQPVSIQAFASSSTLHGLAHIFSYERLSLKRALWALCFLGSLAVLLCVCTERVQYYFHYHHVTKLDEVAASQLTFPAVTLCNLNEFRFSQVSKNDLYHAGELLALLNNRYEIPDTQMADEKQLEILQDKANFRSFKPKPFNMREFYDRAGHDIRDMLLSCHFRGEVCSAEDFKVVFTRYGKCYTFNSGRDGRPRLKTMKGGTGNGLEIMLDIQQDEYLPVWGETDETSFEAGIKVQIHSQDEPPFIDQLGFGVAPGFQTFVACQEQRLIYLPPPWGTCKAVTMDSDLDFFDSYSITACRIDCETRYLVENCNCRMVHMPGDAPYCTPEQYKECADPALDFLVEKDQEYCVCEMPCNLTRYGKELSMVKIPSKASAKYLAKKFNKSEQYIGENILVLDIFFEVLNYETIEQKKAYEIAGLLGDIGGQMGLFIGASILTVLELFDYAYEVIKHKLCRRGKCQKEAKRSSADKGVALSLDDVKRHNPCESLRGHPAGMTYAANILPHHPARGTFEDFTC
Method: ASIC1a expressing HEK293 cells are grown in culture medium (DMEM with 10% FBS), in polystyrene culture flasks ([…]) at 37° C. in a humidified atmosphere of 5% CO2. Confluency of cells should be 80-90% on day of plating. Cells are rinsed with 10 ml of PBS and re-suspended by addition of culture medium and trituration with a 25 ml pipette.
The cells are seeded at a density of approximately 1×10^6 cells/ml (100 μl/well) in black-walled, clear bottom, 96-well plates pre-treated with 10 mg/l poly-D-lysin (75 μl/well for ≧30 min). Plated cells were allowed to proliferate for 24 h before loading with dye.
Fluo-4/AM (1 mg, Molecular Probes) is dissolved in 912 μl DMSO. The Fluo-4/AM stock solution (1 mM) is diluted with culture medium to a final concentration of 2 μM (loading solution).
The culture medium is aspirated from the wells, and 50 μl of the Fluo-4/AM loading solution is added to each well. The cells are incubated at 37° C. for 30 min.
After the loading period, the loading solution is aspirated and the cells are washed twice with 100 μl modified Assay Buffer (145 mM NaCl, 5 mM KCl, 5 mM CaCl2, 1 mM MgCl2, 10 mM HEPES, pH 7.4) to remove extracellular dye. Following the second wash, 100 μl modified Assay Buffer is added to each well and the fluorescence is measured in FLIPR™ or FlexStation™ (Molecular Devices, USA), or any other suitable equipment known to the skilled in the art.
Temperature: Room temperature (20-22° C.)
First addition: 50 μl test solution at a rate of 30 μl/sec and a starting height of 100 μl.
Second addition: 50 μl MES solution (20 mM, 5 mM final concentration) at a rate of 35 μl/sec and a starting height of 150 μl.
Reading intervals: pre-incubation—10 sec×7 and 3 sec×3 antagonist phase—3 sec×17 and 10 sec×12
Addition plates (compound test plate and MES plate) are placed on the right and left positions in the FLIPR tray, respectively. Cell plates are placed in the middle position and the ASIC1a program is effectuated. FLIPR will then take the appropriate measurements in accordance with the interval settings above. Fluorescence obtained after stimulation is corrected for the mean basal fluorescence (in modified Assay Buffer).
The MES-induced peak calcium response, in the presence of test substance, is expressed relatively to the MES response alone. Test substances that block the MES-induced calcium response are re-tested in triplicates. Confirmed hits are picked for further characterization by performing full dose-response curves to determine potency of each hit compound as represented by the IC50 values (i.e., the concentration of the test substance which inhibits 50% of the MES-induced calcium response; see, for example, FIGS. 1A, 1B and 1C, and FIGS. 13A and 13B).

hASIC1a [2] = biological target: T1, hASIC1a; assay: Whole-cell voltage clamp of pH-evoked response of human ASIC1a stably transfected in CHO cells; type: cell-based; design: expressed in transfected cells; conditions: for effect on proton-gated currents from CHO cells expressing hASIC1a: 1 μM, voltage clamp
Method: FIG. 3 illustrates the inhibitory effect of Compound A on acid-evoked activation of human ASIC1a stably transfected in CHO cells. […] In this example, the size of the pH-evoked response was determined by measuring the area under the curve of the response (total charge transfer) and normalized to the control response. FIG. 3B depicts an example of an hASIC1a current (whole cell voltage clamp, −60 mV) evoked by a pH 6.8-buffered solution (from pH 7.4) in the presence or absence of Compound A (3 μM).
These endogenous proton-activated inward currents were recorded in the presence and absence of Compound J (1 μM) or Compound K (1 μM) using the whole cell configuration of the patch clamp method (voltage clamp mode).
All experiments are performed at room temperature (20-25° C.) in voltage clamp using conventional whole cell patch clamp methods (Neher, E., et al. (1978) Pfluegers Arch 375:219-228).
Coverslips with the cells are transferred to a 15 μl experimental chamber mounted on the stage of an inverted microscope (IMT-2, Olympus) supplied with Nomarski optics. Cells are continuously superfused with extracellular saline at a rate of 2.5 ml/min. After giga-seal formation, the whole cell configuration is attained by suction. The cells are held at a holding voltage of −60 mV and at the start of each experiment the current is continuously measured for 45 s to ensure a stable baseline. Solutions of low pH (<7) are delivered to the chamber through a custom-made gravity-driven flowpipe, the tip of which is placed approximately 50 μm from the cell. Application is triggered when the tubing connected to the flowpipe is compressed by a valve controlled by the Pulse-software. Initially, low pH (in general, pH 6.5) is applied for 5 s every 60 s. The sample interval during application is 5501s. After stable responses are obtained, the extracellular saline as well as the low-pH solution are switched to solutions containing the compound to be tested. The compound is present until responses of a repeatable amplitude are achieved. Current amplitudes are measured at the peak of the responses, and effect of the compounds is calculated as the amplitude at compound equilibrium divided by the amplitude of the current evoked by the pulse just before the compound was included.
The following salt solutions are used: extracellular solution (mM): NaCl (140), KCl (4), CaCl2 (2), MgCl2 (4), HEPES (10, pH 7.4); intracellular solution (mM): KCl (120), KOH (31), MgCl2 (1.785), EGTA (10), HEPES (10, pH 7.2). In general, compounds for testing are dissolved in 50% DMSO at 500 fold the highest concentration used.
Similar findings are shown in FIG. 3 with the human ASIC1a stably transfected in CHO cells. FIG. 3A compares the dose-response relationship between Compound A and amiloride [determined by measuring the area under the curve of the response (total charge transfer) and normalized to the control response]. […] FIGS. 14A and 14B show similar results for Compounds J and K.

SMILES: CCN1CCc2c(-c3cc(F)ccc3OC)cc3c(c2C1)NC(=O)/C3=N/O [Compound B, 5-(5-fluoro-2-methoxyphenyl)-6,7,8,9-tetrahydro-3-(hydroxyimino)-8-ethyl-1H-pyrrolo[3,2-h]isoquinoline-2(3H)-one]
pain intensity as evaluated by the flinching behavior (formalin-induced pain): dose-dependent reduction of the pain intensity
pIC50 (hASIC1a [1]): 7.52 to 7.70

SMILES: COc1ccc(Cl)cc1-c1cc2c(c3c1CCN(C)C3)NC(=O)/C2=N/O [Compound C, 5-(5-chloro-2-methoxyphenyl)-6,7,8,9-tetrahydro-3-(hydroxyimino)-8-methyl-1H-pyrrolo[3,2-h]isoquinoline-2(3H)-one]
pIC50 (hASIC1a [1]): 6.52 to 6.70

SMILES: Cc1cc(C)cc(-c2cc3c(c4c2CCN(C)C4)NC(=O)/C3=N/O)c1 [Compound D, 5-(3,5-dimethylphenyl)-6,7,8,9-tetrahydro-3-(hydroxyimino)-8-methyl-1H-pyrrolo[3,2-h]isoquinoline-2(3H)-one]
pIC50 (hASIC1a [1]): 6.46 to 6.60

SMILES: CCN1CCc2c(-c3cc(C)cc(C)c3)cc3c(c2C1)NC(=O)/C3=N/O [Compound E, 5-(3,5-dimethylphenyl)-6,7,8,9-tetrahydro-3-(hydroxyimino)-8-ethyl-1H-pyrrolo[3,2-h]isoquinoline-2(3H)-one]
inhibitory effect on acid-induced hASIC1a activity (dose-response curve) (hASIC1a [1]): dose-dependently inhibit

SMILES: CCN1CCc2c(-c3cc(C)ccc3C)cc3c(c2C1)NC(=O)/C3=N/O [Compound F, 5-(2,5-dimethylphenyl)-6,7,8,9-tetrahydro-3-(hydroxyimino)-8-ethyl-1H-pyrrolo[3,2-h]isoquinoline-2(3H)-one]
inhibitory effect on acid-induced hASIC1a activity (dose-response curve) (hASIC1a [1]): dose-dependently inhibit

SMILES: N=C(N)NC(=O)c1nc(Cl)c(N)nc1N [amiloride, reference compound]
effect on size of human ASIC1a pH-evoked response (area under the curve, total charge transfer, normalized to control) (hASIC1a [2]; CHO cells, -60 mV, pH 6.8 from pH 7.4): reduce the human ASIC1a pH-evoked response in a dose-dependent manner

The next lines start with the values.

inhibitory effect on acid-induced hASIC1a activity (dose-response curve) (hASIC1a [1]): dose-dependently inhibit
SMILES: CCN1CCc2c(-c3cc(Cl)ccc3OC)cc3c(c2C1)NC(=O)/C3=N/O [Compound G, 5-(5-chloro-2-methoxyphenyl)-6,7,8,9-tetrahydro-3-(hydroxyimino)-8-ethyl-1H-pyrrolo[3,2-h]isoquinoline-2(3H)-one]

effect on proton-gated currents from CHO cells expressing hASIC1a (hASIC1a [2]): inhibitory effects
pIC50 (hASIC1a [1]): 6.15 to 7.00
SMILES: CCN1CCc2c(-c3ccccc3OC)cc3c(c2C1)NC(=O)/C3=N/O [Compound J, 8-ethyl-5-(2-methoxy-phenyl)-6,7,8,9-tetrahydro-1H-pyrrolo[3,2-h]isoquinoline-2,3-dione 3-oxime]

effect on proton-gated currents from CHO cells expressing hASIC1a (hASIC1a [2]): inhibitory effects
pIC50 (hASIC1a [1]): 5.77 to 6.52
SMILES: CCOc1ccccc1-c1cc2c(c3c1CCN(CC)C3)NC(=O)/C2=N/O [Compound K, 5-(2-ethoxy-phenyl)-8-ethyl-6,7,8,9-tetrahydro-1H-pyrrolo[3,2-h]isoquinoline-2,3-dione 3-oxime]
